Measurements: US5294611A, “Angiotensin II receptor blocking 2,3,6 substituted quinazolinones” (American Cyanamid Company, priority 1993, dated 1994)
Read-outs that look alike come from different tables or passages of the source.

Tested on: Angiotensin II (AII) vasopressor response
Assay: AII Challenge: antagonism of angiotensin II vasopressor response in conscious spontaneously hypertensive rats
Assay type: in vivo, rat (male okamoto-Aoki SHR)
Conditions: for inhibition in vivo at 3 mg/kg: Rattus norvegicus, read-out: Inhibition; for Change: single SHR
In short: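 Read-out is the systolic pressure increase (mmHg) to i.v. angiotensin II, 0.05 and 0.1 ug/kg, compared pre- and post-dose in restrained, conscious spontaneously hypertensive male rats. Compounds administered orally, i.p. or i.v.; arterial cannula inserted under local anaesthesia.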

[1] = iv, 0.5 h, SHR n=2, 3 mg/kg I.V., AII 0.05 mcg/kg IV, 30 min post dose
[2] = iv, 0.5 h, SHR n=2, 3 mg/kg I.V., AII 0.1 mcg/kg IV, 30 min post dose
[3] = iv, 1 h, SHR n=2, 3 mg/kg I.V., AII 0.05 mcg/kg IV, 60 min post dose
[4] = iv, 2 h, SHR n=2, 3 mg/kg I.V., AII 0.05 mcg/kg IV, 120 min post dose
[5] = iv, 2 h, SHR n=2, 3 mg/kg I.V., AII 0.1 mcg/kg IV, 120 min post dose
[6] = iv, 3 h, SHR n=2, 3 mg/kg I.V., AII 0.05 mcg/kg IV, 180 min post dose
[7] = iv, 3 h, SHR n=2, 3 mg/kg I.V., AII 0.1 mcg/kg IV, 180 min post dose
[8] = iv, […], SHR n=2, 3 mg/kg I.V., AII 0.05 mcg/kg IV, 90 min post dose
[9] = iv, […], SHR n=2, 3 mg/kg I.V., AII 0.1 mcg/kg IV, 90 min post dose
[10] = SHR n=2, 3 mg/kg I.V., AII 0.05 mcg/kg IV, 30 min post dose
[11] = SHR n=2, 3 mg/kg I.V., AII 0.05 mcg/kg IV, 60 min post dose
[12] = SHR n=2, 3 mg/kg I.V., AII 0.05 mcg/kg IV, 90 min post dose
[13] = SHR n=2, 3 mg/kg I.V., AII 0.05 mcg/kg IV, 120 min post dose
[14] = SHR n=2, 3 mg/kg I.V., AII 0.05 mcg/kg IV, 180 min post dose
[15] = SHR n=2, 3 mg/kg I.V., AII 0.1 mcg/kg IV, 30 min post dose
[16] = SHR n=2, 3 mg/kg I.V., AII 0.1 mcg/kg IV, 60 min post dose
[17] = SHR n=2, 3 mg/kg I.V., AII 0.1 mcg/kg IV, 90 min post dose
[18] = SHR n=2, 3 mg/kg I.V., AII 0.1 mcg/kg IV, 120 min post dose
[19] = SHR n=2, 3 mg/kg I.V., AII 0.1 mcg/kg IV, 180 min post dose

Compound `CCCCc1nc2ccc([C@H]3[C@@H]4C(=O)OC[C@@H]4ON3Cc3ccccc3)cc2c(=O)n1Cc1ccc(-c2ccccc2-c2nnn[nH]2)cc1` (relative stereo) [Example 57] has an inhibition in vivo at 3 mg/kg [1] of 100%, an inhibition in vivo at 3 mg/kg [2] of 99% and an inhibition in vivo at 3 mg/kg [3] of 100%. It also gave an inhibition in vivo at 3 mg/kg (iv, 1 h, SHR n=2, 3 mg/kg I.V., AII 0.1 mcg/kg IV, 60 min post dose) of 88%, an inhibition in vivo at 3 mg/kg [4] of 90% and an inhibition in vivo at 3 mg/kg [5] of 81%. It also gave an inhibition in vivo at 3 mg/kg [6] of 61%, an inhibition in vivo at 3 mg/kg [7] of 75% and an inhibition in vivo at 3 mg/kg (iv, 4 h, SHR n=2, 3 mg/kg I.V., AII 0.05 mcg/kg IV, 240 min post dose) of 77%. The inhibition in vivo at 3 mg/kg (iv, 4 h, SHR n=2, 3 mg/kg I.V., AII 0.1 mcg/kg IV, 240 min post dose) was 56%, the inhibition in vivo at 3 mg/kg (iv, 5 h, SHR n=2, 3 mg/kg I.V., AII 0.05 mcg/kg IV, 300 min post dose) was 71% and the inhibition in vivo at 3 mg/kg (iv, 5 h, SHR n=2, 3 mg/kg I.V., AII 0.1 mcg/kg IV, 300 min post dose) was 38%. It also gave an inhibition in vivo at 3 mg/kg [8] of 93%, an inhibition in vivo at 3 mg/kg [9] of 75% and an inhibition in vivo at 3 mg/kg (po, 0.5 h, SHR n=2, 3 mg/kg P.O., AII 0.05 mcg/kg IV, 30 min post dose) of 34%. It also gave an inhibition in vivo at 3 mg/kg (po, 0.5 h, SHR n=2, 3 mg/kg P.O., AII 0.1 mcg/kg IV, 30 min post dose) of 37%, an inhibition in vivo at 3 mg/kg (po, 1 h, SHR n=2, 3 mg/kg P.O., AII 0.05 mcg/kg IV, 60 min post dose) of 67% and an inhibition in vivo at 3 mg/kg (po, 1 h, SHR n=2, 3 mg/kg P.O., AII 0.1 mcg/kg IV, 60 min post dose) of 53%. The inhibition in vivo at 3 mg/kg (po, 2 h, SHR n=2, 3 mg/kg P.O., AII 0.05 mcg/kg IV, 120 min post dose) was 41%, the inhibition in vivo at 3 mg/kg (po, 2 h, SHR n=2, 3 mg/kg P.O., AII 0.1 mcg/kg IV, 120 min post dose) was 63% and the inhibition in vivo at 3 mg/kg (po, 3 h, SHR n=2, 3 mg/kg P.O., AII 0.05 mcg/kg IV, 180 min post dose) was 11%. The inhibition in vivo at 3 mg/kg (po, 3 h, SHR n=2, 3 mg/kg P.O., AII 0.1 mcg/kg IV, 180 min post dose) was 53%, the inhibition in vivo at 3 mg/kg (po, […], SHR n=2, 3 mg/kg P.O., AII 0.05 mcg/kg IV, 90 min post dose) was 47% and the inhibition in vivo at 3 mg/kg (po, […], SHR n=2, 3 mg/kg P.O., AII 0.1 mcg/kg IV, 90 min post dose) was 47%. For the same compound, the “Average Change” value [10] was 0 mmHg, the “Average Change” value [11] was 0 mmHg and the “Average Change” value [12] was 2.5 mmHg. For the same compound, the “Average Change” value [13] was 3.5 mmHg, the “Average Change” value [14] was 13.5 mmHg and the “Average Change” value (SHR n=2, 3 mg/kg I.V., AII 0.05 mcg/kg IV, 240 min post dose) was 8 mmHg. For the same compound, the “Average Change” value (SHR n=2, 3 mg/kg I.V., AII 0.05 mcg/kg IV, 300 min post dose) was 10 mmHg, the “Average Change” value [15] was 0.5 mmHg and the “Average Change” value [16] was 5 mmHg. The “Average Change” value [17] was 10 mmHg, the “Average Change” value [18] was 7.5 mmHg and the “Average Change” value [19] was 10 mmHg. For the same compound, the “Average Change” value (SHR n=2, 3 mg/kg I.V., AII 0.1 mcg/kg IV, 240 min post dose) was 17.5 mmHg, the “Average Change” value (SHR n=2, 3 mg/kg I.V., AII 0.1 mcg/kg IV, 300 min post dose) was 25 mmHg and the “Average Change” value (SHR n=2, 3 mg/kg P.O., AII 0.05 mcg/kg IV, 30 min post dose) was 25 mmHg. The “Average Change” value (SHR n=2, 3 mg/kg P.O., AII 0.05 mcg/kg IV, 60 min post dose) was 12.5 mmHg, the “Average Change” value (SHR n=2, 3 mg/kg P.O., AII 0.05 mcg/kg IV, 90 min post dose) was 20 mmHg and the “Average Change” value (SHR n=2, 3 mg/kg P.O., AII 0.05 mcg/kg IV, 120 min post dose) was 22.5 mmHg. The “Average Change” value (SHR n=2, 3 mg/kg P.O., AII 0.05 mcg/kg IV, 180 min post dose) was 34 mmHg, the “Average Change” value (SHR n=2, 3 mg/kg P.O., AII 0.1 mcg/kg IV, 30 min post dose) was 30 mmHg and the “Average Change” value (SHR n=2, 3 mg/kg P.O., AII 0.1 mcg/kg IV, 60 min post dose) was 22.5 mmHg. The “Average Change” value (SHR n=2, 3 mg/kg P.O., AII 0.1 mcg/kg IV, 90 min post dose) was 25 mmHg, the “Average Change” value (SHR n=2, 3 mg/kg P.O., AII 0.1 mcg/kg IV, 120 min post dose) was 17.5 mmHg and the “Average Change” value (SHR n=2, 3 mg/kg P.O., AII 0.1 mcg/kg IV, 180 min post dose) was 22.5 mmHg. The Change (3 mg/kg I.V., AII 0.05 mcg/kg IV, 30 min post dose) was 0 mmHg, the Change (3 mg/kg I.V., AII 0.05 mcg/kg IV, 60 min post dose) was 0 mmHg and the Change (3 mg/kg I.V., AII 0.1 mcg/kg IV, 300 min post dose) was 25 mmHg. For the same compound, the Change (3 mg/kg P.O., AII 0.05 mcg/kg IV, 30 min post dose) was 25 mmHg and the Change (3 mg/kg P.O., AII 0.1 mcg/kg IV, 30 min post dose) was 30 mmHg.
`CCCCc1nc2ccc([C@H]3[C@@H]4C5CCC(C5)[C@@H]4ON3C)cc2c(=O)n1Cc1ccc(-c2ccccc2-c2nnn[nH]2)cc1` (some centres unmarked) [Example 51] was tested, and the inhibition in vivo at 3 mg/kg [1] was 89%, the inhibition in vivo at 3 mg/kg [2] was 87% and the inhibition in vivo at 3 mg/kg [3] was 63%. The inhibition in vivo at 3 mg/kg (iv, 1 h) was 82%, the inhibition in vivo at 3 mg/kg [4] was 83% and the inhibition in vivo at 3 mg/kg [5] was 75%. It also gave an inhibition in vivo at 3 mg/kg [6] of 67%, an inhibition in vivo at 3 mg/kg [7] of 63% and an inhibition in vivo at 3 mg/kg [8] of 78%. For the same compound, the inhibition in vivo at 3 mg/kg [9] was 80%, the “Average Change” value [10] was 5 mmHg and the “Average Change” value [11] was 16.5 mmHg. The “Average Change” value [12] was 10 mmHg, the “Average Change” value [13] was 7.5 mmHg and the “Average Change” value [14] was 15 mmHg. For the same compound, the “Average Change” value [15] was 8 mmHg, the “Average Change” value [16] was 11 mmHg and the “Average Change” value [17] was 12.5 mmHg. For the same compound, the “Average Change” value [18] was 15.5 mmHg, the “Average Change” value [19] was 22.5 mmHg and the Change (3 mg/kg I.V., AII 0.05 mcg/kg IV, 180 min post dose) was 15 mmHg.
